PubChem BioAssay AID1549 (Sanford-Burnham Center for Chemical Genomics, 2009)
Active and inactive are the calls of the source. How the calls were made is not given here.

Biological target: Influenza A virus M2 proton channel (A/TW/4845/1999 H1N1)
Assay: NMR binding screen, influenza A virus M2 proton channel, Kd (AID 1549)
Conditions: M2 protein

| Compound | Kd |
| --- | --- |
| CC(=O)N(c1ccccc1)C1C=CS(=O)(=O)C1 (stereo not drawn) | > 4 mM (inactive) |
| CC(C)=CC(=O)Nc1ccccc1C(N)=O | > 4 mM (inactive) |
| CC(N)C(=O)c1ccco1 (stereo not drawn) | > 4 mM (inactive) |
| NC(=S)NC1CCS(=O)(=O)C1 (stereo not drawn) | > 4 mM (inactive) |
| Nc1nc(-c2ccncc2)cs1 | > 4 mM (inactive) |
| CCn1cnc2cc([N+](=O)[O-])ccc2c1=O | > 4 mM (inactive) |
| Cc1oc(-c2ccccc2)cc1C(=O)O | > 4 mM (inactive) |
| CC1(C)C(=O)C=C[C@@]2(C)C1=C(O)C(=O)[C@]1(C)C2CC[C@@]2(C)[C@H](c3ccoc3)C[C@H]3O[C@]321 (stereo partly drawn) | > 4 mM (inactive) |
| Cc1ccc(-c2nnc3sc(-c4ccncc4)nn23)cc1 | > 4 mM (inactive) |
| Cc1cccc(C)c1NC(=O)CN1CCOCC1 | > 4 mM (inactive) |
| NC(=S)N1CCC(c2ccccc2)=N1 | > 4 mM (inactive) |
| CC(C)c1nnc(N)s1 | > 4 mM (inactive) |
| Nc1cccc(S(=O)(=O)N2CCOCC2)c1 | > 4 mM (inactive) |
| c1ccc(SCc2nc(-c3cccnc3)no2)cc1 | > 4 mM (inactive) |
| O=C1c2ccccc2C(=O)N1/N=C/c1ccc[nH]1 | > 4 mM (inactive) |
| CC(=O)Nc1cccc(-c2nnc3n2CC(C)S3)c1 (stereo not drawn) | > 4 mM (inactive) |
| CCCS(=O)(=O)N1CCN(c2ccccn2)CC1 | > 4 mM (inactive) |
| CCN1C[C@@]2(COC)C3[C@@H](OC)[C@H]4[C@@H]1[C@]3(C(OC)C[C@H]2O)C1C[C@@]2(O)[C@H](OC(=O)c3ccccc3)C1[C@]4(OC(C)=O)[C@@H](O)[C@@H]2OC (stereo partly drawn) | > 4 mM (inactive) |
| COc1ccc(-c2cc(=O)c3ccccc3o2)cc1 | > 4 mM (inactive) |
| Cc1nn2c(-c3ccco3)nnc2c2ccccc12 | > 4 mM (inactive) |
| NC(=O)C1CCN(c2ncnc(N)c2[N+](=O)[O-])CC1 | > 4 mM (inactive) |
| C[N+](C)(C)CC(=O)[O-] | > 4 mM (inactive) |
| Nc1ccc2ncsc2c1 | > 4 mM (inactive) |

| Compound | Kd |
| --- | --- |
| O=C(NCc1ccccc1Br)c1ccco1 | > 4 mM (inactive) |
| Cc1cc(C(=O)NCc2cccnc2)cs1 | > 4 mM (inactive) |
| CC(=O)O[C@H]1CC[C@@]2(C)C(C[C@@H](OC(C)=O)[C@@]3(C)C4=CC(=O)O[C@@H](c5ccoc5)[C@]4(C)CCC23)C1(C)C (stereo partly drawn) | > 4 mM (inactive) |
| CCn1cnc2scc(-c3ccccc3)c2c1=O | > 4 mM (inactive) |
| CC1CN(Cc2ccccn2)CCC1=O (stereo not drawn) | > 4 mM (inactive) |
| N[C@@H](C(=O)O)[C@@H](O)[C@H](O)[C@H](O)CO | > 4 mM (inactive) |
| O=CN1CCN(C(=O)c2ccccc2Cl)CC1 | > 4 mM (inactive) |
| Cc1cc(C(=O)NC(C)c2ccncc2)no1 (stereo not drawn) | > 4 mM (inactive) |
| COC(=O)c1cccc(C(F)(F)F)c1 | > 4 mM (inactive) |
| c1ccc(CNc2ncnc3nc[nH]c23)nc1 | > 4 mM (inactive) |
| Nc1ncnc(NCCOCCO)c1[N+](=O)[O-] | > 4 mM (inactive) |
| CC(=O)O[C@H]1CCC2(C)C3=C(CCC2C1(C)C)[C@]1(C)CCC(C(C)CCC=C(C)C)[C@@]1(C)CC3 (stereo partly drawn) | > 4 mM (inactive) |
| Cc1ccn(S(=O)(=O)c2ccc(F)cc2)n1 | > 4 mM (inactive) |
| O=C(O)CCN1CCc2ccccc2C1c1ccncc1 (stereo not drawn) | > 4 mM (inactive) |
| Cc1nn2c(=O)nc3sc4c(c3c2[nH]c1=O)CCCC4 | > 4 mM (inactive) |
| Cn1c2ccccc2n2c(=S)[nH]nc12 | > 4 mM (inactive) |
| CSc1nsc(SCc2cnc(C)nc2N)n1 | > 4 mM (inactive) |
| CN(Cc1nc2ccccc2n1C)S(C)(=O)=O | > 4 mM (inactive) |
| O=C(O)CCSc1nc2ccccc2s1 | > 4 mM (inactive) |
| NCc1ccc(N2CCOCC2)cc1 | > 4 mM (inactive) |
| CCN1CCc2c(sc(N)c2C#N)C1 | > 4 mM (inactive) |
| CC(=O)CC(=O)N1C(O)CC[N+]1(C)C (stereo not drawn) | > 4 mM (inactive) |
| COCc1nc(-c2cc(Br)ccc2OC)no1 | > 4 mM (inactive) |

| Compound | Kd |
| --- | --- |
| COC1C(O)C(O[C@H]2CC[C@]3(C=O)C4C(CC[C@]3(O)C2)[C@@]2(O)CC[C@H](C3=CC(=O)OC3)[C@@]2(C)C[C@H]4OC(C)=O)OC(C)C1OC(C)=O (stereo partly drawn) | > 4 mM (inactive) |
| N/N=C/c1cccnc1 | > 4 mM (inactive) |
| O=C(Nn1cnnc1)c1cc2c(s1)CCCCC2 | > 4 mM (inactive) |
| C=CC(=O)N1CC2CC(C1)c1cccc(=O)n1C2 (stereo not drawn) | > 4 mM (inactive) |
| Cc1oc(S(=O)(=O)N2CCCCC2)cc1C(=O)O | > 4 mM (inactive) |
| CN(Cc1nc2ccccc2n1C)C(=O)c1cccs1 | > 4 mM (inactive) |
| C=CCSc1[nH]c(=O)cc(C)c1C(N)=O | > 4 mM (inactive) |
| Cc1ccc(N2C(=O)C3C4C=CC(O4)C3C2=O)cc1 (stereo not drawn) | > 4 mM (inactive) |
| OCCNC(=S)Nc1ccccc1 | > 4 mM (inactive) |
| CC(=O)Nc1ccc(-c2cn3ccsc3n2)cc1 | > 4 mM (inactive) |
| CN1C2C[C@H](OC(=O)[C@H](CO)c3ccccc3)C[C@H]1[C@@H](O)C2 | > 4 mM (inactive) |
| O=C(NN1C(=O)CSC1=S)c1ccccc1 | > 4 mM (inactive) |
| CCn1c(=O)cc(N2CCC3(CC2)OCCO3)[nH]c1=O | > 4 mM (inactive) |
| COC(=O)CSc1nc(N)cc(=O)[nH]1 | > 4 mM (inactive) |
| NC1=NC(=O)/C(=C/c2ccccc2[N+](=O)[O-])S1 | > 4 mM (inactive) |
| Cc1cc2nc3c(=O)[nH]c(=O)nc-3n(CC(O)C(O)C(O)CO)c2cc1C (stereo not drawn) | > 4 mM (inactive) |
| CON(C)C(=O)Nc1ccc(Cl)cc1 | > 4 mM (inactive) |
| CN(c1ccc(C(=O)N2CCCCC2)cc1)S(C)(=O)=O | > 4 mM (inactive) |
| Cc1ccc2nc(NC(=O)CN3CCOCC3)sc2c1 | > 4 mM (inactive) |
| CC(=O)O[C@@H]1CC2C(C)(C)C(=O)C=C[C@]2(C)C2CC[C@@]3(C)[C@H](c4ccoc4)OC(=O)[C@H]4O[C@]43[C@@]21C (stereo partly drawn) | > 4 mM (inactive) |
| Cc1cc[n+](-c2nc([O-])sc2C=O)cc1 | > 4 mM (inactive) |
| O=C(O)C1CN(Cc2ccccc2)CCO1 (stereo not drawn) | > 4 mM (inactive) |
| CC(C)[C@@H]1CC[C@@H](C)C[C@H]1OC(=O)c1ccccc1 | > 4 mM (inactive) |

| Compound | Kd |
| --- | --- |
| O=c1c[n+]([O-])c2ccccc2n1OCc1ccccn1 | > 4 mM (inactive) |
| CC(CCC(=O)O)[C@H]1CCC2C3C(C[C@H](O)[C@@]21C)[C@@]1(C)CC[C@@H](O)C[C@H]1C[C@H]3O (stereo partly drawn) | > 4 mM (inactive) |
| COc1cc2nc(N3CCNCC3)nc(N)c2cc1OC | > 4 mM (inactive) |
| Cc1cc(C(=O)Nc2sc(C)c(C)c2C#N)c(C)o1 | > 4 mM (inactive) |
| CC(C)(C)CC(=O)NC1=NCCS1 | > 4 mM (inactive) |
| Cc1nc2ccccc2c(=O)n1/N=C/c1ccco1 | > 4 mM (inactive) |
| CCCS(=O)(=O)N1CCN(c2ccccc2F)CC1 | > 4 mM (inactive) |
| O=c1[nH]c(=S)[nH]c2c1CCC2 | > 4 mM (inactive) |
| CC[C@@]1(O)C(=O)OCc2c1cc1n(c2=O)Cc2cc3ccccc3nc2-1 | > 4 mM (inactive) |
| C[C@@H]1CCC2[C@](C)(CO)[C@@H](O)CC[C@]2(C)[C@@]12CC[C@@](CO)(CCO)O2 (stereo partly drawn) | > 4 mM (inactive) |
| CC1CCC2(OC1)OC1CC3C4CCC5C[C@@H](O)CCC5(C)C4=CCC3(C)C1[C@@H]2C (stereo partly drawn) | > 4 mM (inactive) |
| CC(C)/C(O)=C1/C(=O)O[C@@H](c2ccoc2)[C@]2(C)C(O)[C@@H](O)[C@@]34OC5(C)OC67CC(C)(C(O)[C@]6(O)[C@@H](O)[C@]3(O5)C12)[C@H](CC(=O)O)[C@]74C (stereo partly drawn) | > 4 mM (inactive) |
| O=C(Nc1ccc2c(c1)OCCO2)c1ccncc1 | > 4 mM (inactive) |
| Cn1c(CN2CC(c3ccccc3)CC2=O)n[nH]c1=S (stereo not drawn) | > 4 mM (inactive) |
| COCC(=O)Nc1ccc(C)c(Cl)c1 | > 4 mM (inactive) |
| CNC(=O)C1COc2ccccc2O1 (stereo not drawn) | > 4 mM (inactive) |
| O=C(O)c1ccc(NC(=O)c2cccs2)cc1 | > 4 mM (inactive) |
| CS(=O)(=O)N/N=C/c1cccs1 | > 4 mM (inactive) |
| CC[C@H](/C=C/C(C)C1CCC2C3CCC4=CC(=O)CC[C@]4(C)C3CC[C@]12C)C(C)C (stereo partly drawn) | > 4 mM (inactive) |
| Cc1nc2cc(NC(=O)Nc3nccs3)ccc2n1C | > 4 mM (inactive) |
| Nc1cc(N)nc(SCc2ccccc2)n1 | > 4 mM (inactive) |
| O=C(O)CN1CCN(C2CCCC2)CC1 | > 4 mM (inactive) |
| Nc1nc(N)nc(N2C(=O)c3ccccc3C2=O)n1 | > 4 mM (inactive) |

| Compound | Kd |
| --- | --- |
| O=C1C2CCCCC2C(=O)N1c1nccs1 (stereo not drawn) | > 4 mM (inactive) |
| CN(C)c1ccc2c(=O)[nH][nH]c(=O)c2c1 | > 4 mM (inactive) |
| O=C(O)c1csc2ccccc12 | > 4 mM (inactive) |
| O=C(O)Cc1csc(-c2ccccc2)n1 | > 4 mM (inactive) |
| Cn1nnc2cc(C(=O)NCc3ccco3)ccc21 | > 4 mM (inactive) |
| O=C1CSC2(CN3CCC2CC3)N1 (stereo not drawn) | > 4 mM (inactive) |
| O=C(NC(=O)N1CCOCC1)c1ccccc1 | > 4 mM (inactive) |
| Cc1cc2cc3c(C)cc(=O)oc3c(C)c2o1 | > 4 mM (inactive) |
| COc1ccccc1-c1n[nH]c(=O)o1 | > 4 mM (inactive) |
| Cc1nc(NCc2ccco2)nc2c1C(=O)CC(C)C2 (stereo not drawn) | > 4 mM (inactive) |
| O=c1cnnc(SCCc2ccccc2)[nH]1 | > 4 mM (inactive) |
| O=c1[nH]cc(Nc2ccccc2)c(=O)[nH]1 | > 4 mM (inactive) |
| Cc1nc(-c2cccc(C(=O)O)c2)cs1 | > 4 mM (inactive) |
| CC[C@@H]1[C@@H](O)N2C3C[C@H]1C1C(O)[C@]4(C[C@@H]12)c1ccccc1N(C)[C@@H]34 (stereo partly drawn) | > 4 mM (inactive) |
| O=C1CN(C(=O)CN2CCOCC2)c2ccccc2N1 | > 4 mM (inactive) |
| CC(=O)c1cc(CN2C(=O)c3ccccc3C2=O)cs1 | > 4 mM (inactive) |
| COc1ccc(NC(=O)CSc2nccc(=O)[nH]2)cc1 | > 4 mM (inactive) |
| Oc1ccccc1N=Cc1cccnc1 | > 4 mM (inactive) |
| Cc1ccc(C(=O)N2CCC(C(N)=O)CC2)cc1C | > 4 mM (inactive) |
| CC(=O)Oc1ccccc1N1C(=O)C=CC1=O | > 4 mM (inactive) |
| CCOC(=O)C1CCC(=O)c2cccn21 (stereo not drawn) | > 4 mM (inactive) |
